Data published in patent US20230129485A1, “SYSTEM AND METHOD FOR DETERMINING MATERIAL PROPERTIES OF MOLECULAR SYSTEMS FROM AN AB-INITIO PARAMETERIZED FORCE-FIELD” (InterX, Inc., priority 2021, published 2023).

How the values were obtained:
[1] = Free energy of hydration by Polarizable Continuum Model (PCM); conditions: absolute error vs Exp (hydration)
Procedure: (§1) Due to unavailability of free energy data for the original COSMO model, the free energies of solvation for the molecule dataset are calculated using MolPro ver. […] The comparisons to other implicit solvent models such as SMD, PCM and COSMO-RS are limited to the overlap of the molecules computed using QM-parameterized force field model. The free energies of hydration as predicted by these implicit solvent models (SMD, PCM) were received.

[2] = implicit solvent model, values received; cited from earlier work
[3] = Free energy of hydration by Solvation Model Dielectric (SMD) implicit solvent model; conditions: absolute error vs Exp (hydration)
Procedure: as §1

[4] = implicit solvent model, values received; cited from earlier work; remark: listed apart in the source
[5] = Free energy of hydration by COSMO implicit solvent model (MolPro ver. 2012); conditions: absolute error vs Exp (hydration)
Procedure: as §1

[6] = Free energy of hydration predicted with the QM-parameterized force field model (ARROW FF), classical MD and PIMD simulation in a water box; conditions: for water Arrow MD Error / water Arrow PIMD8 Error: Table 3; for water Arrow MD Error: absolute error of MD hydration free energy vs experiment; for water Arrow PIMD8 Error: absolute error of PIMD8 hydration free energy vs experiment; for Arrow PIMD8 Error: absolute error vs Exp (hydration)
Excerpt: For example, the example QM-parameterized force-field molecular simulation process 400 can use Bennett Acceptance Ratio (BAR) to compute the free energy of hydration/solvation of the molecule in water or any other solvent. In some implementations, the analysis of the molecular dynamics simulations includes analysis, predication, and visualization of ensemble properties of atoms/molecules from atomic and molecular trajectories using the optimized parameters of the QM-parameterized force field model (i.e., the quantum mechanics rule-based reasoning technique) and the QM-parameterized force field model.
In some simulations of the QM-parameterized force field molecular simulation process, the molecules were placed in a water or cyclohexane box of size 32×32×32 Å3. Particle-Mesh Ewald (PME) algorithm was used to compute the electrostatic interactions. A 32×32×32 grid mesh and 5th power spline interpolation order can be used to compute the inverse PME sum. 9 Å cutoffs were used to compute the direct PME sum as well as the exchange and dispersion interactions. Bulk corrections were applied to account for distance cut-off of dispersion interactions. Solvation free energies were computed by decoupling the interactions between the solute and the solvent molecules. Electrostatic, exchange-repulsion and dispersion interactions were switched off simultaneously using a lambda-dependent scaling (a scaling factor power=2 was used) and a soft-coring algorithm (maximal soft-coring radius=1.5 Å, soft-coring radius scaling factor power=1). 15 lambda points unequally spaced (X=0, 0.05, 0.1, 0.2, 0.3, 0.4, 0.5, 0.6, 0.7, 0.75, 0.8, 0.85, 0.9, 0.95, 1.0) were used to decouple the solute-solvent intermolecular interactions.
In some simulations of the QM-parameterized force field molecular simulation process, energy minimization (10,000 steps) using the steepest descent algorithm was initially performed on all the simulation systems. This was followed by a 50 ps equilibration and 1 ns production runs in the isothermal-isobaric ensemble (NPT). […] Pressure was maintained at 1 atm using a MTTK barostat (relaxation time=5 ps). A Multiple Time Step (MTS) algorithm was used to integrate the equations of motion both for the classical and path-integral runs. […] The calculations were performed using the QM-parameterized force field model.
Using the QM-parameterized force field model, the QM-parameterized force field device can compute or predict the solvation free energies using both the Bennett acceptance ratio (BAR) and thermodynamic integration (TI) method with <dH/dλ> values interpolated by cubic splines. […] FIG. 7A illustrates a <dH/dλ> dependence for desolvation of Anthracene in water. FIG. 7B illustrates accumulated statistical errors for TI calculations of AG desolvation of Anthracene in water.

[7] = Table 3; free energy of hydration, experimental; cited from earlier work
[8] = Free energy of hydration by COSMO-RS
Procedure: as §1

[9] = CHEX/H2O partition coefficient (log D) predicted with the QM-parameterized force field model (ARROW FF)
Excerpt: In some simulations, the example QM-parameterized force-field molecular simulation process includes using the functional form of the bonded interactions, with force constants and equilibrium values fitted to QM energies at the MP2/aug-cc-pVTZ level of theory. In some simulations, solvents of water and cyclohexane are selected. Cyclohexane (CHEX) is nonpolar and equilibrates relatively quickly. Reliable experimental data for both CHEX solvation free energies, as well as for the CHEX/H2O partition coefficients are used in these simulations.
In some example simulations, solutes containing neutral chemical functional groups, for example carboxylic acids, alkanes, alkenes, aromatics, aldehydes, ketones, alcohols, amides, esters, thiols, sulfides, disulfides and heterocycles, are used. The simulations were performed independently by four groups using their own respective computational resources and architectures, and then averaged. FIGS. 9A-9C show solvation and hydration free energies predictions of various solutes, using the QM-parameterized force field model, in some embodiments.
The straight line is a line of agreement between experimental and simulated/predicted values, and the gray bar is the range or chemical accuracy. […] The molecules here are a subset of those in a) because only those with experimental values for CHEX solvation can be included.

Structure (SMILES) | PCM Error [1] | PCM free energy of hydration [2] | SMD Error [3] | SMD free energy of hydration [4] | COSMO/Molpro Error [5] | water Arrow MD Error [6] | water Arrow PIMD8 Error [6] | Arrow PIMD8 Error [6] | water Exp (hydration) [7] | COSMO-RS error [8] | log D Arrow MD Error [9] | log D Arrow PIMD Error [9] | logD Arrow MD Error [9] | logD Arrow PIMD Error [9]
CCS [EthaneThiol] | 0.86 kcal/mol | -2.10 kcal/mol | 0.24 kcal/mol | -1.00 kcal/mol | 2.70 kcal/mol | 0.94 kcal/mol | 0.43 kcal/mol | 0.43 kcal/mol | -1.24 kcal/mol | – | – | – | – | –
C=C [Ethene] | 2.08 kcal/mol | -0.80 kcal/mol | 0.12 kcal/mol | 1.40 kcal/mol | 2.95 kcal/mol | 0.29 kcal/mol | 0.19 kcal/mol | 0.19 kcal/mol | 1.28 kcal/mol | 0.55 kcal/mol | – | – | – | –
CCCCCC [Hexane] | 2.71 kcal/mol | -0.20 kcal/mol | 0.11 kcal/mol | 2.40 kcal/mol | 3.37 kcal/mol | 0.94 kcal/mol | 0.06 kcal/mol | 0.06 kcal/mol | 2.51 kcal/mol | 0.06 kcal/mol | – | – | – | –
CCCOC [MethylPropylEther] | 0.14 kcal/mol | -1.80 kcal/mol | 1.16 kcal/mol | -0.50 kcal/mol | 3.19 kcal/mol | 0.66 kcal/mol | 0.00 kcal/mol | 0.00 kcal/mol | -1.66 kcal/mol | – | – | – | – | –
CC(C)(C)C [NeoPentane] | 2.80 kcal/mol | -0.30 kcal/mol | 0.30 kcal/mol | 2.20 kcal/mol | 3.25 kcal/mol | 1.05 kcal/mol | 0.12 kcal/mol | 0.12 kcal/mol | 2.50 kcal/mol | – | – | – | – | –
C=CC [Propene] | 2.12 kcal/mol | -0.80 kcal/mol | 0.12 kcal/mol | 1.20 kcal/mol | 3.00 kcal/mol | 0.48 kcal/mol | 0.05 kcal/mol | 0.05 kcal/mol | 1.32 kcal/mol | 0.32 kcal/mol | – | – | – | –
CN [methylamine] | – | – | – | – | 1.24 kcal/mol | 0.49 kcal/mol | 0.16 kcal/mol | 0.16 kcal/mol | -4.55 kcal/mol | 0.26 kcal/mol | – | – | – | –
Cc1ccc(O)cc1 [p-cresol] | – | – | – | – | – | – | – | – | – | – | 0.73 | 0.11 | 0.73 | 0.11
c1ccc2c(c1)ccc1ccccc12 [phenanthrene] | – | – | – | – | 1.97 kcal/mol | 0.35 kcal/mol | 0.09 kcal/mol | 0.09 kcal/mol | -3.88 kcal/mol | – | – | – | – | –
c1cc2ccc3cccc4ccc(c1)c2c34 [pyrene] | – | – | – | – | 1.32 kcal/mol | 0.45 kcal/mol | 0.01 kcal/mol | 0.01 kcal/mol | -4.52 kcal/mol | – | – | – | – | –
c1ccc2cc3cc4ccccc4cc3cc2c1 [tetracene] | – | – | – | – | 1.43 kcal/mol | 0.39 kcal/mol | 0.44 kcal/mol | 0.44 kcal/mol | -5.5 kcal/mol | – | – | – | – | –
